The source of these data is ChEMBL document CHEMBL4130434, “Antineoplastic Agents. 604. The Path of Quinstatin Derivatives to Antibody Drug Conjugates” (2017).

Holding throughout (assay type): functional
Assay [1] has as its system NCI-H460. The assay is described as follows: Growth inhibition of human NCI-H460 cells after 48 hrs by SRB assay. Particulars: NCI-H460, 48 h.
Assay [2] relates to SF-268. The experiment in a line: Growth inhibition of human SF268 cells after 48 hrs by SRB assay. To be noted: SF-268, 48 h.
The subject of assay [3] is BXPC-3. The assay is described as follows: Growth inhibition of human BxPC3 cells after 48 hrs by SRB assay. To be noted: BXPC-3, 48 h.
Assay [4] concerns KM-20L2. The assay is described as follows: Growth inhibition of human KM20L2 cells after 48 hrs by SRB assay. To be noted: KM-20L2, 48 h.
Assay [5] has as its system DU-145. The experiment in a line: Growth inhibition of human DU145 cells after 48 hrs by SRB assay. To be noted: DU-145, 48 h.
Assay [6] relates to MCF7. The experiment in a line: Growth inhibition of human MCF7 cells after 48 hrs by SRB assay. To be noted: MCF7, 48 h.

*1 amine or outer side, *2 acyl side, *3 side chain or, on linkers, in order; H or OH if unused. Where a SMILES comes first, the peptide text is derived from it. [ ]: non-standard residue; d: D form. The star is where a group is joined. Dolaproine = CO[C@@H]([C@@H]1CCCN1)[C@@H](C)C(=O)O; Hexanoyl(6-maleimido) = O=C1C=CC(=O)N1CCCCCC(=O)*; Dil = CC[C@H](C)[C@H](NC)[C@@H](CC(=O)O)OC; PABC = O=C(OCc1ccc(N[*:1])cc1)[*:2]; Cit = NC(=O)NCCC[C@H](N)C(=O)O; NMeV = CN[C@H](C(=O)O)C(C)C; X1 = c1cnc2c(CCN*)cccc2c1; X2 = c1cc(CCN*)c2cccnc2c1; X3 = c1ccc2c(CCN*)ccnc2c1; X4 = c1ccc2nc(CCN*)ccc2c1

Take `CC[C@H](C)[C@@H]([C@@H](CC(=O)N1CCC[C@H]1[C@H](OC)[C@@H](C)C(=O)NCCc1cccc2ncccc12)OC)N(C)C(=O)[C@@H](NC(=O)[C@@H](NC)C(C)C)C(C)C` (H-[NMeV]V[Dil][Dolaproine]-X2): the GI50 was 37.9 nM in assay [1]; 0.311 nM in assay [2]; 27.1 nM in assay [3]; 0.582 nM in assay [4]; 0.812 nM in assay [5]; 0.298 nM in assay [6].

In the case of `CC[C@H](C)[C@@H]([C@@H](CC(=O)N1CCC[C@H]1[C@H](OC)[C@@H](C)C(=O)NCCc1ccnc2ccccc12)OC)N(C)C(=O)[C@@H](NC(=O)[C@@H](NC)C(C)C)C(C)C` (H-[NMeV]V[Dil][Dolaproine]-X3), the GI50 in assay [1] amounted to 67.7 nM; in assay [2] it was 0.176 nM; in assay [3], 67.7 nM; in assay [4], 0.596 nM; in assay [5], 0.135 nM; in assay [6], 0.149 nM.

Consider `CC[C@H](C)[C@@H]([C@@H](CC(=O)N1CCC[C@H]1[C@H](OC)[C@@H](C)C(=O)NCCc1cccc2ncccc12)OC)N(C)C(=O)[C@@H](NC(=O)[C@H](C(C)C)N(C)C(=O)OCc1ccc(NC(=O)[C@H](CCCNC(N)=O)NC(=O)[C@@H](NC(=O)CCCCCN2C(=O)C=CC2=O)C(C)C)cc1)C(C)C` ({Hexanoyl(6-maleimido)}-V[Cit][PABC][NMeV]V[Dil][Dolaproine]-X2), for which the concentration for 50% growth inhibition (GI50) in assay [1] turned out to be 247 nM; in assay [2], 2.99 nM; in assay [3] it was 299 nM; in assay [4], 11.2 nM; in assay [5], 4.49 nM; in assay [6] it was 5.23 nM.

On to `CC[C@H](C)[C@@H]([C@@H](CC(=O)N1CCC[C@H]1[C@H](OC)[C@@H](C)C(=O)N[C@@H](Cc1ccccc1)c1nccs1)OC)N(C)C(=O)[C@@H](NC(=O)[C@H](C(C)C)N(C)C)C(C)C` [DOLASTATIN-10], for which the GI50 in assay [1] worked out at 0.229 nM; in assay [2], 0.006 nM; in assay [3], 0.051 nM; in assay [4], 0.01 nM; in assay [5], 0.007 nM; in assay [6], 0.005 nM.

As for `CC[C@H](C)[C@@H]([C@@H](CC(=O)N1CCC[C@H]1[C@H](OC)[C@@H](C)C(=O)NCCc1cccc2cccnc12)OC)N(C)C(=O)[C@@H](NC(=O)[C@H](C(C)C)N(C)C(=O)OCc1ccc(NC(=O)[C@H](CCCNC(N)=O)NC(=O)[C@@H](NC(=O)CCCCCN2C(=O)C=CC2=O)C(C)C)cc1)C(C)C` ({Hexanoyl(6-maleimido)}-V[Cit][PABC][NMeV]V[Dil][Dolaproine]-X1), the GI50 in assay [1] turned out to be 449 nM; in assay [2], 3.52 nM; in assay [3], 449 nM; in assay [4], 23.9 nM; in assay [5] it was 5.98 nM; in assay [6] it was 15 nM.

As for `CC[C@H](C)[C@@H]([C@@H](CC(=O)N1CCC[C@H]1[C@H](OC)[C@@H](C)C(=O)NCCc1ccc2ccccc2n1)OC)N(C)C(=O)[C@@H](NC(=O)[C@@H](NC)C(C)C)C(C)C` (H-[NMeV]V[Dil][Dolaproine]-X4), the GI50 in assay [1] was found to be 392 nM; in assay [2], 1.22 nM; in assay [3] it was 81.2 nM; in assay [4] it was 3.24 nM; in assay [5] it was 12.2 nM; in assay [6] it was 4.06 nM.

Regarding `CC[C@H](C)[C@@H]([C@@H](CC(=O)N1CCC[C@H]1[C@H](OC)[C@@H](C)C(=O)NCCc1cccc2cccnc12)OC)N(C)C(=O)[C@@H](NC(=O)[C@@H](NC)C(C)C)C(C)C` (H-[NMeV]V[Dil][Dolaproine]-X1), the 50% growth inhibitory concentration (GI50) in assay [1] is 14.9 nM; in assay [2] it was 0.06 nM; in assay [3], 11.5 nM; in assay [4] it was 0.203 nM; in assay [5], 0.07 nM; in assay [6] it was 0.06 nM.

As to `CC[C@H](C)[C@@H]([C@@H](CC(=O)N1CCC[C@H]1[C@H](OC)[C@@H](C)C(=O)NCCc1ccnc2ccccc12)OC)N(C)C(=O)[C@@H](NC(=O)[C@H](C(C)C)N(C)C(=O)OCc1ccc(NC(=O)[C@H](CCCNC(N)=O)NC(=O)[C@@H](NC(=O)CCCCCN2C(=O)C=CC2=O)C(C)C)cc1)C(C)C` ({Hexanoyl(6-maleimido)}-V[Cit][PABC][NMeV]V[Dil][Dolaproine]-X3), the GI50 in assay [1] came to 2620 nM; in assay [2], 29.9 nM; in assay [3], 1570 nM; in assay [4] it was 38.9 nM; in assay [5], 31.4 nM; in assay [6], 30.7 nM.
